# Measured values taken from article PMC7377239, “Cardiovascular Effects of Polychlorinated Biphenyls and Their Major Metabolites” (Environmental Health Perspectives, 2020).
# Where two headings read alike, the source gives them in different places.
# Assays:
# [1] = tested on: iCell endothelial cells (human iPSC-derived ECs); assay: High-content imaging cytotoxicity in iCell endothelial cells, 24 h; assay type: cell-based; conditions: Homo sapiens, Endothelial cell, 24 hr; for viability at 0.1 µM / activity at 0.1 µM: 0.10 µM
# Outline: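 Human iPSC-derived endothelial cells (passages 1–5) were grown to a fibronectin-coated monolayer, then exposed 24 h at 37 °C with 0.5% DMSO vehicle. Staining was Hoechst 33342, MitoTracker Orange and calcein AM, read by high-content imaging. Point of departure came from 4-parameter logistic fits, with a 1-SD vehicle cutoff and 100 µM as the top concentration.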
# HUVECs = assay: High-content imaging cytotoxicity in HUVECs, 24 h; assay type: cell-based, human; conditions: Homo sapiens, HUVEC, 24 h; for viability at 0.01 µM / activity at 0.01 µM / viability at 0.1 µM / activity at 0.1 µM / viability at 1 µM / activity at 1 µM / viability at 10 µM / activity at 10 µM / viability at 100 µM / activity at 100 µM: 0.00 µM = 100.00; for viability at 0.1 µM / activity at 0.1 µM: 0.10 µM
# Outline: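 Point-of-departure values derive from four-parameter logistic fits of vehicle-normalized imaging phenotypes (Hoechst 33342, MitoTracker Orange, calcein AM). The fits follow 24 h exposure of HUVEC monolayers at 37°C and 5% CO2, with a top tested concentration of 100μM.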
# [2] = iPSC-EC, 0.00 µM control = 100.00, read-out: endo.cyto.24hr
# [3] = iPSC-EC, 0.00 µM control = 100.00, read-out: endo.mito.24hr
# [4] = iPSC-EC, 0.00 µM control = 100.00, read-out: endo.mitoint.24hr
# [5] = iPSC-EC, 0.00 µM control = 100.00, read-out: endo.nma.24hr
# [6] = iPSC-EC, 0.00 µM control = 100.00, read-out: endo.tc.24hrs
# [7] = HUVECs, 24 hr, read-out: huvec.cyto.24hr
# [8] = HUVECs, 24 hr, read-out: huvec.mito.24hr
# [9] = HUVECs, 24 hr, read-out: huvec.mitoint.24hr
# [10] = HUVECs, 24 hr, read-out: huvec.nma.24hr
# [11] = HUVECs, 24 hrs, read-out: huvec.tc.24hrs
smiles,measurement,setting,value
Oc1cccc(-c2ccc(Cl)cc2)c1 [3'-OH PCB3],viability at 0.01 µM,[1]; [2],93.4%
same,activity at 0.01 µM,[1]; [3],93.6%
same,activity at 0.01 µM,[1]; [4],123%
same,activity at 0.01 µM,[1]; [5],101%
same,viability at 0.01 µM,[1]; [6],93.4%
same,viability at 0.1 µM,[1]; [2],99.8%
same,activity at 0.1 µM,[1]; [3],100%
same,activity at 0.1 µM,[1]; [4],111%
same,activity at 0.1 µM,[1]; [5],97.6%
same,viability at 0.1 µM,[1]; [6],99.8%
same,viability at 1 µM,[1]; [2],98.9%
same,activity at 1 µM,[1]; [3],99.4%
same,activity at 1 µM,[1]; [4],118%
same,activity at 1 µM,[1]; [5],97.4%
same,viability at 1 µM,[1]; [6],98.9%
same,viability at 10 µM,[1]; [2],102%
same,activity at 10 µM,[1]; [3],102%
same,activity at 10 µM,[1]; [4],129%
same,activity at 10 µM,[1]; [5],98.3%
same,viability at 10 µM,[1]; [6],102%
same,viability at 100 µM,[1]; [2],45.2%
same,activity at 100 µM,[1]; [3],58%
same,activity at 100 µM,[1]; [4],98.4%
same,activity at 100 µM,[1]; [5],90.1%
same,viability at 100 µM,[1]; [6],79.2%
same,minimal effective concentration,"[1]; iPSC-EC, top concentration 100.00 µM, read-out: endo.cyto.24hr POD",45.8 µM
same,minimal effective concentration,"[1]; iPSC-EC, top concentration 100.00 µM, read-out: endo.mito.24hr POD",45.8 µM
same,minimal effective concentration,"[1]; iPSC-EC, top concentration 100.00 µM, read-out: endo.mitoint.24hr POD",100 µM
same,minimal effective concentration,"[1]; iPSC-EC, top concentration 100.00 µM, read-out: endo.nma.24hr POD",9.75 µM
same,minimal effective concentration,"[1]; iPSC-EC, top concentration 100.00 µM, read-out: endo.tc.24hrs POD",53.2 µM
same,viability at 0.01 µM,HUVECs; [7],89.2%
same,activity at 0.01 µM,HUVECs; [8],89.3%
same,activity at 0.01 µM,HUVECs; [9],101%
same,activity at 0.01 µM,HUVECs; [10],97.3%
same,viability at 0.1 µM,HUVECs; [7],100%
same,activity at 0.1 µM,HUVECs; [8],100%
same,activity at 0.1 µM,HUVECs; [9],111%
same,activity at 0.1 µM,HUVECs; [10],92.6%
same,viability at 1 µM,HUVECs; [7],94.4%
same,activity at 1 µM,HUVECs; [8],93.7%
same,activity at 1 µM,HUVECs; [9],104%
same,activity at 1 µM,HUVECs; [10],92%
same,viability at 10 µM,HUVECs; [7],70.9%
same,activity at 10 µM,HUVECs; [8],66.2%
same,activity at 10 µM,HUVECs; [9],108%
same,activity at 10 µM,HUVECs; [10],84.9%
same,viability at 100 µM,HUVECs; [7],63.7%
same,activity at 100 µM,HUVECs; [8],77.8%
same,activity at 100 µM,HUVECs; [9],19.3%
same,activity at 100 µM,HUVECs; [10],68.8%
same,minimal effective concentration,"HUVECs; HUVECs, 24 hr, top concentration 100.00 µM, read-out: huvec.cyto.24hr POD",1.1 µM
same,minimal effective concentration,"HUVECs; HUVECs, 24 hr, top concentration 100.00 µM, read-out: huvec.mito.24hr POD",0.97 µM
same,minimal effective concentration,"HUVECs; HUVECs, 24 hr, top concentration 100.00 µM, read-out: huvec.mitoint.24hr POD",41.4 µM
same,minimal effective concentration,"HUVECs; HUVECs, 24 hr, top concentration 100.00 µM, read-out: huvec.nma.24hr POD",0.04 µM
same,viability at 0.01 µM,HUVECs; [11],89.2%
same,viability at 0.1 µM,HUVECs; [11],100%
same,viability at 1 µM,HUVECs; [11],94.6%
same,viability at 10 µM,HUVECs; [11],71%
same,viability at 100 µM,HUVECs; [11],83.9%
same,minimal effective concentration,"HUVECs; HUVECs, 24 hrs, top concentration 100.00 µM, read-out: huvec.tc.24hrs POD",1.1 µM
Oc1cccc(-c2ccc(Cl)cc2)c1 [3'-OH-PCB 3],minimal effective concentration,"[1]; endothelial cells (endo), cyto, read-out: POD endo.cyto.24hr",45.8 µM
same,minimal effective concentration,"[1]; endothelial cells (endo), mito, read-out: POD endo.mito.24hr",45.8 µM
same,minimal effective concentration,"[1]; endothelial cells (endo), mitoint, read-out: POD endo.mitoint.24hr",100 µM
same,minimal effective concentration,"[1]; endothelial cells (endo), nma, read-out: POD endo.nma.24hr",9.75 µM
same,minimal effective concentration,"[1]; endothelial cells (endo), tc, read-out: POD endo.tc.24hr",53.2 µM
same,minimal effective concentration,"HUVECs; cyto, 24 hr, read-out: POD huvec.cyto.24hr",1.1 µM
same,minimal effective concentration,"HUVECs; mito, 24 hr, read-out: POD huvec.mito.24hr",0.97 µM
same,minimal effective concentration,"HUVECs; mitoint, 24 hr, read-out: POD huvec.mitoint.24hr",41.4 µM
same,minimal effective concentration,"HUVECs; nma, 24 hr, read-out: POD huvec.nma.24hr",0.04 µM
same,minimal effective concentration,"HUVECs; tc, 24 hr, read-out: POD huvec.tc.24hr",1.1 µM
